In the supplement of paper PMC10307832:

Experiments:
Test in all cases: relative viability (nuclei count vs DMSO), 5 days (fraction); higher = more cells survive
Pemetrexed + Crizotinib = compound: Nc1nc2[nH]cc(CCc3ccc(C(=O)N[C@@H](CCC(=O)O)C(=O)O)cc3)c2c(=O)[nH]1 [Pemetrexed] + C[C@@H](Oc1cc(-c2cnn(C3CCNCC3)c2)cnc1N)c1c(Cl)ccc(F)c1Cl [Crizotinib] (partner 1 µM)
Method in brief: (§1)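 Lung cancer cell lines in 1536-well plates got either a single drug or a fixed anchor-drug dose together with five library-drug doses (not always all listed) in √10 steps, by pin tool, on the day after seeding. Nuclei were counted after 5 days, and relative viability is the treated-to-vehicle ratio of nuclei counts. Values are medians of duplicate plates.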

Pemetrexed + Palbociclib = compound: Nc1nc2[nH]cc(CCc3ccc(C(=O)N[C@@H](CCC(=O)O)C(=O)O)cc3)c2c(=O)[nH]1 [Pemetrexed] + CC(=O)c1c(C)c2cnc(Nc3ccc(N4CCNCC4)cn3)nc2n(C2CCCC2)c1=O [Palbociclib] (partner 0.5 µM)
Method in brief: as §1

Pemetrexed + Navitoclax = compound: Nc1nc2[nH]cc(CCc3ccc(C(=O)N[C@@H](CCC(=O)O)C(=O)O)cc3)c2c(=O)[nH]1 [Pemetrexed] + CC1(C)CCC(c2ccc(Cl)cc2)=C(CN2CCN(c3ccc(C(=O)NS(=O)(=O)c4ccc(N[C@H](CCN5CCOCC5)CSc5ccccc5)c(S(=O)(=O)C(F)(F)F)c4)cc3)CC2)C1 [Navitoclax] (partner 0.5 µM)
Method in brief: as §1

Pemetrexed + Foretinib = compound: Nc1nc2[nH]cc(CCc3ccc(C(=O)N[C@@H](CCC(=O)O)C(=O)O)cc3)c2c(=O)[nH]1 [Pemetrexed] + COc1cc2c(Oc3ccc(NC(=O)C4(C(=O)Nc5ccc(F)cc5)CC4)cc3F)ccnc2cc1OCCCN1CCOCC1 [Foretinib] (partner 0.25 µM)
Method in brief: as §1

**Q.** UMC-11 was tested. Which relative viability (Pemetrexed + Crizotinib; first compound 0.002 µM) did it give?
**A.** The relative viability was 0.603.

**Q.** What about the relative viability (Pemetrexed + Crizotinib; first compound 0.006325 µM) of the same cell line?
**A.** The relative viability was 0.635.

**Q.** What about the relative viability (Pemetrexed + Crizotinib; first compound 0.02 µM) of the same cell line?
**A.** Its relative viability is 0.666.

**Q.** And the relative viability (Pemetrexed + Crizotinib; first compound 0.06325 µM)?
**A.** The relative viability was 0.715.

**Q.** What about the relative viability (Pemetrexed + Crizotinib; first compound 0.2 µM) of the same cell line?
**A.** The relative viability was 0.566.

**Q.** What about the relative viability (Pemetrexed + Palbociclib; first compound 0.002 µM) of the same cell line?
**A.** The relative viability was 0.344.

**Q.** What about the relative viability (Pemetrexed + Palbociclib; first compound 0.006325 µM) of the same cell line?
**A.** Its relative viability is 0.322.

**Q.** And the relative viability (Pemetrexed + Palbociclib; first compound 0.02 µM)?
**A.** The relative viability was 0.343.

**Q.** What about the relative viability (Pemetrexed + Palbociclib; first compound 0.06325 µM) of the same cell line?
**A.** The relative viability was 0.342.

**Q.** And the relative viability (Pemetrexed + Palbociclib; first compound 0.2 µM)?
**A.** Its relative viability is 0.357.

**Q.** And the relative viability (Pemetrexed + Navitoclax; first compound 0.002 µM)?
**A.** Its relative viability is 0.292.

**Q.** And the relative viability (Pemetrexed + Navitoclax; first compound 0.006325 µM)?
**A.** Its relative viability is 0.283.

**Q.** What about the relative viability (Pemetrexed + Navitoclax; first compound 0.02 µM) of the same cell line?
**A.** The relative viability was 0.354.

**Q.** What about the relative viability (Pemetrexed + Navitoclax; first compound 0.06325 µM) of the same cell line?
**A.** The relative viability was 0.312.

**Q.** What about the relative viability (Pemetrexed + Navitoclax; first compound 0.2 µM) of the same cell line?
**A.** The relative viability was 0.344.

**Q.** What about the relative viability (Pemetrexed + Foretinib; first compound 0.002 µM) of the same cell line?
**A.** The relative viability was 1.02.

**Q.** What about the relative viability (Pemetrexed + Foretinib; first compound 0.006325 µM) of the same cell line?
**A.** The relative viability was 0.943.

**Q.** And the relative viability (Pemetrexed + Foretinib; first compound 0.02 µM)?
**A.** Its relative viability is 1.14.

**Q.** What about the relative viability (Pemetrexed + Foretinib; first compound 0.06325 µM) of the same cell line?
**A.** The relative viability was 1.02.

**Q.** And the relative viability (Pemetrexed + Foretinib; first compound 0.2 µM)?
**A.** The relative viability was 0.847.
